One may read the IC50 as the concentration at which inhibition is half-maximal. A high value points to a need for much substance.

These results are taken from US5716963A, “Anthraquinonic derivatives having an antitumor activity and applications thereof” (Universidad Complutense De Madrid, priority 1994, dated 1998).

One experiment deals with P-388. Nature of the experiment: IC50 growth inhibition, P-388 suspension culture. The experiment is classed as cell-based, DBA/2 mouse. As to conditions: Mus musculus, P388, 72 h, three days, 37° C., 10% CO2, approximate IC50, in duplicate. Here is the method: (§1) Cell cultures: The cells were kept in logarithmic phase of growth in Eagle's Minimum Essential Medium, with Earle's Balanced Salts, with L-gluatamine 2.0 mM, with non-essential amino acids and without sodium bicarbonate (EMEM-NEAA); supplemented with Fetal Calf Serum (FCS) 10% sodium bicarbonate 10^-2 and with 0.1 g/l penicillin-G+-streptomycin sulfate.
(§2) To determine and to compare the antitumor activity of these compounds, a simple screening process was carried out using an adapted form of the method described by Bergeron et al. (1984) ((1) Raymond J. Bergeron, Paul F. Cavanaugh, Jr., Steven J. Kline, Robert G. Hughes, Jr., Gary T. Elliot and Carl W. Porter. Antineoplastic and antiherpetic activity of spermidine catecholamide iron chelators. Biochem. Bioph. Res. Comm. 1984, 121 (3), 848-854; (2) Alan C. Schroeder, Robert G. Hughes, Jr. and Alexander Bloch. Effects of Acyclic pyrimidine nucleoside analogues. J. Med. Chem. 1981, 24, 1078-1083). The antitumor cells used have been P-388 (culture in DBA/2 mouse lymphoid neoplasm suspension), A-549 (human lung carcinoma monolayer culture); HT-29 human colon carcinoma monolayer culture) and MEL (human melanoma monolayer culture).
The P-388 cells were seeded in 16 mm cups at 1×10^4 cells per cup in aliquots at 1 ml. MEM 5FCS that contains the indicated drug concentration. Separately, a batch of cultures without any drug was seeded as a growth control to ensure that the cells were kept in a logarithmic phase of growth. All the determinations were carried out in duplicate. After three days of incubation at 37° C., 10% CO2 in an atmosphere with 98% humidity, the approximate IC50 was determined by comparing the growth in the cups with the drug and the control cups.

The subject of the next experiment is A-549. The experiment is described as follows: IC50 growth inhibition, A-549 monolayer culture (crystal violet). The experiment is classed as cell-based. The following applies: Homo sapiens, A549, 72 h, three days, 37° C., 10% CO2, crystal violet 0.1%, approximate IC50, in duplicate. Here is the method:
as §1, §2
(§3) The A-549, HT-29 and MEL-28 cells were seeded in 16 mm cups at […] cells per cup in aliquots of […] of MEM 10FCS that contain the indicated drug concentration. Separately, a batch of cultures without any drug was seeded as a growth control to ensure that the cells were kept in a logarithmic phase of growth. All the determinations were carried out in duplicate. After three days of incubation at 37° C., 10% CO2 in an atmosphere with 98% humidity, the cups were stained with crystal violet 0.1%. The approximate IC50 was determined by comparing the growth in the cups with the drug and the growth in the control cups.

Another experiment has as its system HT-29. The experiment is described as follows: IC50 growth inhibition, HT-29 monolayer culture (crystal violet). The format is cell-based. As to conditions: Homo sapiens, 72 h, three days, 37° C., 10% CO2, crystal violet 0.1%, approximate IC50, in duplicate. On the procedure: as §1, §2, §3
The next experiment relates to MEL-28. The experiment is described as follows: IC50 growth inhibition, MEL-28 monolayer culture (crystal violet). The experiment is classed as cell-based. The following applies: Homo sapiens, SK-MEL-28, 72 h, three days, 37° C., 10% CO2, crystal violet 0.1%, approximate IC50, in duplicate. On the procedure: as §1, §2, §3
The test system of the next experiment is Gram positive bacteria. As to conditions: cited from earlier work.
A further experiment deals with thymidilate synthetase. As to conditions: cited from earlier work.

SMILES strings stand for the structures. In brackets after ≈: the same amount, converted by molar mass. Bounds are passed on as bounds.

For the compound `CCOc1nc2c(cc1C)C(=O)c1ccccc1C2=O` [(I-b), 2-ethoxy-3-methyl-1-azaanthracen-9,10-dione], the IC50 in the experiment with P-388 was 5 mg/L (≈ 18.7 µM); with A-549 it was 0.25 mg/L (≈ 0.935 µM); in the experiment on HT-29, 10 mg/L (≈ 37.4 µM); with MEL-28, 5 mg/L (≈ 18.7 µM).

On to `O=C1c2ccccc2C(=O)c2ncc(F)cc21` [(I-l), 3-fluoro-1-azaanthracen-9,10-dione], for which the IC50 was found to be 0.25 mg/L (≈ 1.1 µM) in the experiment on P-388, 0.05 mg/L (≈ 0.22 µM) in the experiment on A-549, 0.25 mg/L (≈ 1.1 µM) in the experiment on HT-29 and 0.05 mg/L (≈ 0.22 µM) in the experiment with MEL-28.

In the case of `CCc1cc2c([nH]c1=O)C(=O)c1[nH]c(=O)cc(C)c1C2=O` [(I-c)], the IC50 in the experiment with P-388 is 0.1 mg/L (≈ 0.352 µM); in the experiment with A-549 it was 0.025 mg/L (≈ 0.0879 µM); in the experiment with HT-29, 0.1 mg/L (≈ 0.352 µM); with MEL-28 it was 0.1 mg/L (≈ 0.352 µM).

`Cc1cc(=O)[nH]c2c1C(=O)c1cc(F)cnc1C2=O` [(I-e), 6-fluoro-4-methyl-1H,1,8-diazaanthracen-2,9,10-trione]: the IC50 with P-388 was found to be 0.005 mg/L (≈ 0.0194 µM); with A-549, 0.02 mg/L (≈ 0.0775 µM); with HT-29 it was 0.05 mg/L (≈ 0.194 µM); in the experiment on MEL-28, 0.05 mg/L (≈ 0.194 µM).

In the case of `CCCc1c2c([nH]c(=O)c1C)C(=O)c1[nH]c(=O)c(C)c(CCC)c1C2=O` [Diazaquinomycin A], the “activity against Gram positive bacteria” value with Gram positive bacteria was “goods activity against Gram positive bacteria”. Besides, the “capacity to inhibit thymidilate synthetase” value in the experiment on thymidilate synthetase is recorded as “capacity to inhibit thymidilate synthetase”.

For the compound `O=C1c2cc(F)cnc2C(=O)c2ncc(F)cc21` [(I-i), 3,6-difluoro-1,8-diazaanthracen-9,10-dione], the IC50 in the experiment with P-388 was found to be 0.025 mg/L (≈ 0.102 µM); with A-549 it was 0.1 mg/L (≈ 0.406 µM); in the experiment with HT-29 it was 0.1 mg/L (≈ 0.406 µM); in the experiment with MEL-28, 0.025 mg/L (≈ 0.102 µM).

As to `Cc1cc(=O)[nH]c2c1C(=O)c1cc(N(C)C)cnc1C2=O` [(I-f), 6-dimethylamino-4-methyl-1H-1,8-diazaanthracen-2,9,10-trione], the IC50 with P-388, in the experiment on A-549, with HT-29 and with MEL-28 was 0.02 mg/L (≈ 0.0706 µM) in each case.

On to `CC1=C(C)CC2C(=O)c3c(C)cc(=O)[nH]c3C(=O)C2C1` (stereo not shown) [(I-a), 4,6,7-trimethyl-5,8,8a,10a-tetrahydro-1H-1-azaathracen-2,9,10-trione], for which the IC50 with P-388 stood at 1 mg/L (≈ 3.69 µM); with A-549, 0.25 mg/L (≈ 0.921 µM); in the experiment with HT-29 it was 1 mg/L (≈ 3.69 µM).

In the case of `CC1C(F)=CNC2=C1C(=O)c1ccccc1C2=O` (stereo not shown) [(I-k), 3-fluoro-4-methyl-1,4-dihydro-1-azaanthracen-9,10-dione], the 50% inhibitory concentration (IC50) in the experiment with P-388 was 0.25 mg/L (≈ 1.03 µM); with A-549, 0.25 mg/L (≈ 1.03 µM); in the experiment with HT-29 it was 0.25 mg/L (≈ 1.03 µM); in the experiment on MEL-28, 0.12 mg/L (≈ 0.493 µM).

In the case of `Cc1cc(=O)[nH]c2c1C(=O)c1cc(C)c(=O)[nH]c1C2=O` [(I-h), 3,5-dimethyl-1,8-dihydro-1,8-diazaanthracen-2,7,9,10-tetraone], the IC50 in the experiment on P-388 came to 0.05 mg/L (≈ 0.185 µM); in the experiment with A-549, 0.05 mg/L (≈ 0.185 µM); in the experiment with HT-29 it was 0.05 mg/L (≈ 0.185 µM); in the experiment with MEL-28, 0.025 mg/L (≈ 0.0925 µM).

As to `Cc1cc(=O)[nH]c2c1C(=O)C1=C(NC=CC1c1ccccc1[N+](=O)[O-])C2=O` (stereo not shown) [(I-g), 4-methyl-5-(2-nitrophenyl)-5,8-dihydro-1H-1,8-diazaanthracen-2,9,10-trione], the IC50 was 0.5 mg/L (≈ 1.38 µM) in the experiment with P-388, 0.05 mg/L (≈ 0.138 µM) with A-549, 0.05 mg/L (≈ 0.138 µM) in the experiment on HT-29 and 0.1 mg/L (≈ 0.275 µM) with MEL-28.

On to `CC(=O)c1cc2c([nH]c1=O)C(=O)c1ncc(C)cc1C2=O` [(I-d)], for which the 50% inhibitory concentration (IC50) was found to be 1 mg/L (≈ 3.54 µM) in the experiment on P-388, 0.25 mg/L (≈ 0.886 µM) in the experiment with A-549, 1 mg/L (≈ 3.54 µM) with HT-29 and 0.25 mg/L (≈ 0.886 µM) in the experiment with MEL-28.

As to `Cc1cnc2c(c1)C(=O)c1cc(-c3ccccc3)c(=O)[nH]c1C2=O` [(I-j), 6-methyl-3-phenyl-1H-1,8-diazaanthracen-2,9,10-trione], the concentration for half-maximal inhibition (IC50) was 2.5 mg/L (≈ 7.9 µM) with P-388, 5 mg/L (≈ 15.8 µM) in the experiment on A-549, 10 mg/L (≈ 31.6 µM) in the experiment on HT-29 and above 10 mg/L in the experiment on MEL-28.
